The text below walks through data of patent US11981702B2, “Compounds for fluorescence sensing of duplex formation” (San Diego State University Research Foundation, priority 2016, dated 2024).

Holding throughout (format): physicochemical
The nature of series [1]: Quantum yield of fluorescence emission, comparative method of Williams et al., quinine sulfate standard (free nucleosides, single-stranded oligonucleotides). The following applies: for ss Φem: single-stranded oligonucleotide, 1x PBS buffer pH 7.4. As for the experimental part:
(§1) Quantum yields of fluorescence emission were determined using the comparative method of Williams et. al. (Analyst 1983, 108, 1067) and a fluorescence standard of quinine sulfate in 0.1M H2SO4 (Table 1 and FIG. 2). The single-stranded oligonucleotides have quantum yields of fluorescence emission ranging from Φem=0.01-0.03, all brighter than the free 8-DEA-tC nucleoside by up to a factor of five. Addition of the complementary sequences and duplex formation results in further fluorescence increase in all sequences, up to Φem=0.12 for sequence GC. This quantum yield is 20-fold greater than that of the free 8-DEA-tC nucleoside, the largest such increase reported to date for a fluorescent nucleoside analogue.
(§2) All photophysical experiments were measured in a quartz sub-micro cuvette (10 mm path length) purchased from Starnacell Inc. Solutions were prepared in 1×PBS buffer at pH 7.4. Steady state emission scans were recorded using a PTI QuantaMaster QM-400 and absorbances were measured on a Shimadzu UV-1700 Pharmaspec spectrometer. Quantum yield measurements were performed the comparative method of Williams et. al. and measured in duplicate, at minimum.[7] Quinine sulfate in 0.1M H2SO4 was used as a reference standard for all photophysical measurements. Measurements by using a commercial sample of pyrrolo-dC to obtain a fluorescence quantum yield of 0.046, matching the value of 0.05 as reported by the Tor group were validated.[8] All measurements were taken with an absorbance range of 0.01-0.1. Subsequent dilutions were performed stepwise in order to obtain a minimum of five absorbance and emission spectra for quantum yield determinations. Representative data from these quantum yield measurements is plotted below. Quantum yield determinations were obtained using the following equation: […]
The determination of quantum yields for single-stranded oligonucleotides containing 8-DEA tC were calculated using the integrated emission intensity measurements of the single strand prior to the addition of the complementary strand, with the following equation. This method was validated by comparison with and confirmed with a SS quantum yield experiment.

The test system of series [2] is complementary strand. Kind of series: Quantum yield of fluorescence emission of double-stranded oligonucleotides after adding complementary strand. The following applies: for increase in fluorescent quantum yield in duplex DNA as compared with the free nucleoside: matched duplex, depending on neighboring bases; for ds Φem: double-stranded oligonucleotide, 1x PBS buffer pH 7.4. As to the method:
as §1, §2
Samples of double-stranded oligonucleotides were prepared using a known concentration of single-stranded oligonucleotide and adding a total of 2.4 equivalents of complementary strand at room temperature. A single-strand absorbance and emission were taken prior to the addition of the first 1.2 equivalents of complementary strand for purposes of single-strand calculation and verification of hybridization. An additional 1.2 equivalent is added after the first double-strand to ensure that complete hybridization was achieved. Thermal annealing procedures had no effect on the measurements as expected, given that these sequences were chosen to have no competing, stable secondary structures.

Series [3] is described as follows: UV/Vis absorption and steady state emission spectra. The following applies: for ds λmax,abs / ds λmax,em: double-stranded; for ds λmax,abs / ds λmax,em / λmax,abs (ss) / λmax,em (ss): 1x PBS buffer pH 7.4; for λmax,abs (ss) / λmax,em (ss): single-stranded. As to the method:
as §2
Normalized absorption and emission plots of single-stranded oligonucleotides and double-stranded oligonucleotides in 1×PBS buffer at pH 7.4 were determined accordingly.

A short description of series [4]: Stern-Volmer analysis of chloride quenching. The following applies: 0 mM to 180 mM NaCl. As to the method:
To test the ability of the duplex to attenuate chloride quenching of 8-DEA-tC, a Stern-Volmer analysis was performed using the 8-DEA-tC nucleoside and the TT duplex oligonucleotide (see Examples section below). […] In contrast, chloride has a modest quenching effect on 8-DEA-tC when present in the matched TT duplex.
In order to assess the magnitude that chloride, present in our buffers, would quench the fluorescent cytidine analogues, a Stern-Volmer analysis was performed spanning from 0 mM NaCl to 180 mM NaCl to mimic the environment of the 1XPBS buffer used in the fluorescence measurements of the oligomers.
A solution fluorophore was prepared and a known volumes of a 0.5 M NaCl solution were titrated in and the resulting fluorescence change was measured. The dilution factor was taken into account when calculating integrated fluorescence intensity.

The nature of series [5]: Viscosity sensitivity of fluorescence in methanol-glycerol mixtures. The following applies: 25° C. The text has this: It was hypothesized that the C—N bond appending the diethylamino group to tC may provide a molecular rotor effect, enabling non-emissive relaxation coupled to conformational change at the excited state. […] For this reason, it was hypothesized that slowed water dynamics in the major groove of the duplex could cause an increase in the fluorescence of 8-DEA-tC. To test this hypothesis, a comparison of the solvent viscosity sensitivity of fluorescence of the 8-DEA-tC nucleoside with parent tC and 9-(2,2-dicyanovinyl)julolidine (DCVJ, a frequently used reference compound for viscosity effects on fluorescence) using mixtures of glycerol and methanol was performed (see Examples section below).
The responsiveness of (8-DEA)tC, tC, and 9-(2,2-dicyanovinyl)julolidine (DCVJ) to viscosity changes using binary methanol-glycerol mixtures was determined.
Molecular rotors are known to have fluorescent properties that are dependent on the medium viscosity, the fluorescence spectra of parent tC and (8-DEA)tC were examined in methanol-glycerol mixtures ranging from 0 to 100% methanol in glycerol at 25° C. […]
A calibration plot of fluorescence intensity (I) versus viscosity (η) were constructed using the Foster-Hoffman equation ΦF=zη^α, relating the fluorescence quantum yield (ΦF) as a function of viscosity (η) and fluorophore and solvent-specific constants (z, α).

The nature of series [6]: Quantum yield of fluorescence emission, comparative method of Williams et al., quinine sulfate standard (free nucleosides, single-stranded oligonucleotides). The following applies: free nucleoside, 1,4-dioxane.
Series [7] can be described thus: UV/Vis absorption and steady state emission spectra. The following applies: free nucleoside, 1,4-dioxane.
The test system of series [8] is complementary strand. Kind of series: CD melting temperature of oligonucleotide duplexes (ellipticity at 255 nm). The following applies: for ΔTm: Tm for natural DNA duplex subtracted from Tm for the 8-DEA-tC-containing duplex; for Tm: duplex 5 μM in PBS pH 7.4. As for the experimental part:
UV CD spectra of oligonucleotide duplexes at a concentration of 5 μM in phosphate buffered saline (10 mM sodium phosphate, pH 7.4, […] potassium chloride, 137 mM sodium chloride) were collected at 25° C. in a 1 cm path length cell on an Aviv model 420 spectrophotometer equipped with a Peltier temperature controller. Background-subtracted spectra were smoothed and normalized to concentration using A260 nm as calculated from detector voltage using the following equation and converted to standard units. […] 255 nm was monitored from 15° C. to 75° C. at 1° C. increments. The TM of each duplex was calculated by fitting the raw data to a two-state model in Igor Pro. Melting curves are reported as fraction unfolded.

The next series relates to matching complement. Kind of series: Visual discrimination of single nucleotide mismatch under hand-held UV lamp. The following applies: 0.26 mM in 0.5X PBS buffer, versus oligo alone and mismatch duplex. As for the experimental part: Next, the ability of 8-DEA-tC to distinguish single nucleotide by a visible fluorescence response was tested (FIG. 5). 0.26 mM solutions of GC oligo in 0.5X PBS buffer were prepared with the GC oligo alone, a duplex with the matching complement, and a duplex with an 8-DEA-tC mismatch.

[8-DEA-tC] = 8-diethylamino tricyclic cytidine analogue (fluorescent), on 2'-deoxyribose

Regarding `CCN(CC)c1ccc2c(c1)Nc1nc(=O)n([C@H]3CC(O)[C@@H](CO)O3)cc1S2` (stereo partly drawn) [8-DEA-tC, 8-Diethylamino-tricyclic-2′-deoxy-β-D-ribonucleoside], the “sensitivity to quenching by protic solvent relative to parent tC” value in series [1] was “approximately twice as sensitive”. Also, in series [1] (deuterated 1X PBS buffer), the “Φem in deuterated buffer” value came to 0.012. In addition, in series [1] (free nucleoside, 1x PBS buffer), the Φem is 0.006. For the same molecule, in [1] (free nucleoside, 1x PBS buffer to 1,4-dioxane), the “increase of Φem on solvent change” value worked out at 10 fold. For the same molecule, the “increase in Φem when mispaired with A” value in the series on complementary strand [2] (8-DEA-tC opposite A in duplex) is “less than 2 fold”. Moreover, in the series with complementary strand [2] (8-DEA-tC opposite abasic site (dSpacer) in duplex), the “Φem opposite an abasic site” value was “effectively the same as for the free nucleoside”. In the series on complementary strand [2], the “increase in fluorescent quantum yield in duplex DNA as compared with the free nucleoside” value is recorded as at most 20 fold. In series [3] (free nucleoside, 1x PBS buffer), the ε was found to be 2700 M⁻¹ cm⁻¹, the “λmax,abs” value was 395 nm and the “λmax,em” value came out at 493 nm. Further, the “effect of chloride on fluorescence” value in [4] is listed as “more fluorescent with increasing chloride concentration”. In addition, the “response of fluorescence intensity to viscosity” value in [5] is recorded as “positively correlated to viscosity”. In series [6], this molecule registered a Φem of 0.06. In addition, in series [7], the “λmax,abs” value is given as 389 nm and the “λmax,em” value was 524 nm.

For the molecule `N#CC(C#N)=Cc1cc2c3c(c1)CCCN3CCC2` [DCVJ, 9-(2,2-dicyanovinyl)julolidine, reference compound], the “response of fluorescence intensity to viscosity” value in [5] was “three-fold greater”.

“CA: 5′-CGC-ACX-ATC-G-3′ (SEQ ID NO: 13), X = 8-DEA-tC (DNA CGCACCATCG; DNA, [8-DEA-tC] at 6, backbone not given here)”: the “ss Φem” value in [1] is 0.014. Besides, in the series with complementary strand [2], the “ds Φem” value came out at 0.017. In series [3], the “ds λmax,abs” value came to 410 nm, the “ds λmax,em” value is 494 nm, the “λmax,abs (ss)” value turned out to be 420 nm and the “λmax,em (ss)” value worked out at 493 nm. Besides, in the series with complementary strand [8], the thermal shift (ΔTm) result is “+2.1 °C” and the midpoint of thermal melting (Tm) is 57.4 °C.

In the case of “CC: 5′-CGC-ACX-CTC-G-3′ (SEQ ID NO: 15), X = 8-DEA-tC (DNA CGCACCCTCG; DNA, [8-DEA-tC] at 6, backbone not given here)”, the “ss Φem” value in series [1] amounted to 0.013. The “ds Φem” value with complementary strand [2] worked out at 0.024. In [3], the “ds λmax,abs” value amounted to 413 nm, the “ds λmax,em” value is reported as 496 (496) nm, the “λmax,abs (ss)” value is 421 nm and the “λmax,em (ss)” value is 496 (496) nm. For the same molecule, in the series on complementary strand [8], the thermal shift (ΔTm) result is “+6.7 °C” and the Tm amounted to 60.2 °C.

As to “GA: 5′-CGC-AGX-ATC-G-3′ (SEQ ID NO: 10), X = 8-DEA-tC (DNA CGCAGCATCG; DNA, [8-DEA-tC] at 6, backbone not given here)”, the “ss Φem” value in series [1] came out at 0.020. The “ds Φem” value with complementary strand [2] is reported as 0.050. Besides, in series [3], the “ds λmax,abs” value is listed as 422 nm, the “ds λmax,em” value is 499(499) nm, the “λmax,abs (ss)” value was found to be 425 nm and the “λmax,em (ss)” value was 499(499) nm. Besides, in the series on complementary strand [8], the thermal shift (ΔTm) is -5.1 °C and the Tm came to 50.7 °C.

As for “GC: 5′-CGC-AGX-CTC-G-3′ (SEQ ID NO: 12), X = 8-DEA-tC (DNA CGCAGCCTCG; DNA, [8-DEA-tC] at 6, backbone not given here)”, the “ss Φem” value in series [1] came out at 0.032. Moreover, in the series with complementary strand [2], the “ds Φem” value is 0.12 and the “increase in fluorescent quantum yield in duplex DNA as compared with the free nucleoside” value is recorded as 20 fold. Also, in series [3], the “ds λmax,abs” value is given as 348 nm, the “ds λmax,em” value was determined as 500 nm, the “λmax,abs (ss)” value is given as 425 nm and the “λmax,em (ss)” value was 499 nm. Besides, in the series with complementary strand [8], the ΔTm is -14.5 °C and the Tm is 49.1 °C. For the same molecule, in the series on matching complement, the “visible fluorescence response of matched duplex” value is given as “large increase in fluorescence”.

In the case of “GG: 5′-CGC-AGX-GTC-G-3′ (SEQ ID NO: 14), X = 8-DEA-tC (DNA CGCAGCGTCG; DNA, [8-DEA-tC] at 6, backbone not given here)”, in [1], the “ss Φem” value is listed as 0.027. For the same molecule, the “ds Φem” value with complementary strand [2] was found to be 0.056. Further, in series [3], the “ds λmax,abs” value was found to be 400 nm, the “ds λmax,em” value was found to be 499 nm, the “λmax,abs (ss)” value stood at 415 nm and the “λmax,em (ss)” value is 498 nm. Besides, in the series with complementary strand [8], the shift in melting temperature (ΔTm) is -7.0 °C and the Tm amounted to 58.2 °C.

As to “TA: 5′-CGC-ATX-ATC-G-3′ (SEQ ID NO: 16), X = 8-DEA-tC (DNA CGCATCATCG; DNA, [8-DEA-tC] at 6, backbone not given here)”, the “ss Φem” value in series [1] amounted to 0.014. In addition, the “ds Φem” value in the series with complementary strand [2] is 0.026. Further, in series [3], the “ds λmax,abs” value was determined as 420 nm, the “ds λmax,em” value is 495 (495) nm, the “λmax,abs (ss)” value is listed as 417 nm and the “λmax,em (ss)” value was 495 (495) nm. In the series with complementary strand [8], the ΔTm was -1.6 °C and the Tm came out at 48.7 °C.

The term ΔTm denotes the change in melting temperature against a reference sample. What is called Tm is the temperature at the midpoint of the melting transition.
